This is an account of results in PMC7966987, “Insights into the catalytic properties of the mitochondrial rhomboid protease PARL” (The Journal of Biological Chemistry, 2021).

Assay [1] deals with T1, human PARLΔ55 (Homo sapiens, UniProt Q9H300).
T1 construct: to generate full-length (FL) starting at residue 55 or the β-cleavage form truncated at residue 77; GFP-hexahistidine (behind a TEV cleavage site) (C, cleaved yes); made in house; host or cells: Pichia pastoris
T1 sequence (Q9H300 56-379): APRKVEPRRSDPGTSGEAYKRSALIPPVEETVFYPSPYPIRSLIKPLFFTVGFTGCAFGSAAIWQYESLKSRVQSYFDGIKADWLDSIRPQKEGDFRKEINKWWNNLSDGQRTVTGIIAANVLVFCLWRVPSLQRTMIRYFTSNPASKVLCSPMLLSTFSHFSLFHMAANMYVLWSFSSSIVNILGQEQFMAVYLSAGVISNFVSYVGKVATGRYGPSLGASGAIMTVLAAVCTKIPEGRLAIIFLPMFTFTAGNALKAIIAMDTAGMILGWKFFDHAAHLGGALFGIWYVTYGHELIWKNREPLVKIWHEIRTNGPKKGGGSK
Kind of assay: IQ-peptide substrate cleavage kinetics, PARLΔ55 in proteoliposomes. It counts as biochemical. The note with it: PARLΔ55 in PLs (E. coli polar lipids), 50 mM Tris-HCl pH 7.0, 150 mM NaCl, 10% glycerol, no DDM, 37 °C; mean ± SEM. The text has this:
(§1) To assess the activity of recombinant PARL toward known substrates in a lipid bilayer, full-length and β-truncated PARL were reconstituted in proteoliposomes (PLs) using Escherichia coli lipids that closely resemble the composition of the IMM ([31]). We determined that the EDANS/Dabcyl - FRET tags prevented incorporation of the substrates into PL; however, the substrate could still be cleaved since the active site is proposed to be near the lipid/water interface ([40], [41]) analogous to bacterial rhomboid proteases (Fig. 1). To calculate the specific activity of the protease, we quantified the fraction of PARL in the PLs with an outward facing active site using a membrane […] activity-based TAMRA-labeled fluorophosphonate probe ([42]). […] These values were used to calculate specific activity of the PARL protease. Next, we compared cleavage of three IQ-peptide substrates by reconstituted full-length mature PARLΔ55 and the β-truncated form, PARLΔ77 (Fig. 3, Tables S5 and S6).
(§2) Assays with FRET-PINK1^70–134 were conducted as previously described ([26]). For EDANS/Dabcyl 10-mer IQ peptides (PINK1, PGAM5, Smac/Diablo), lyophilized peptides were initially dissolved in DMSO to obtain a stock solution. The IQ peptide substrates in a concentration range of 0.1–70 μM were incubated with activity assay buffer (50 mM Tris-HCl pH 7.0, 150 mM NaCl, 10% glycerol, 0.1% DDM) in a 384-well black-bottomed plate at 37 °C for 30 min in a multiwell plate reader (SynergyMx, BioTek). For all concentrations of IQ peptide, the DMSO was kept constant at 5%. Following preincubation, PARL was added to a final concentration of 0.8 μM to initiate the cleavage reaction. Fluorescence readings were taken every 3 min over a 3 h time course at ƛex = 336 nm and ƛem = 490 nm. The initial velocity was determined from the fluorescence readings over the time course. For each substrate concentration, a no-enzyme control was subtracted to eliminate background fluorescence changes not related to substrate cleavage. Relative fluorescence units were converted to concentration (μM) by determining the maximum change in fluorescence observed for each substrate concentration when fully digested. GraphPad Prism software was used for Michaelis–Menten analysis of kinetic curves. All kinetic data were obtained using at least three biological replicates (different enzyme preparations) with technical duplicates for each experiment. For kinetic measurements in detergent with all three substrates, the activity assays were repeated at least five times. In addition, after each protease purification, the quality control of purified PARL was controlled by measuring its enzymatic activity. Minimum of three experimental replicates with two technical replicates were used for data analysis.
(§3) E. coli polar lipids (Avanti), 400 μg in chloroform, were dried under nitrogen stream in a glass tube to yield a thin film of lipid. The tube was incubated overnight in a desiccator to completely remove all traces of solvent. In total, 50 μl of water and DDM detergent was added to the lipid film for resuspension at room temperature for 10 min, followed by the addition of purified PARL (400 μg) in 50 mM Tris-HCl, pH 8.0, 150 mM NaCl, 20% glycerol, 0.1% DDM, to yield the final weight ratio of 1 PARL:1 lipid:2 detergent. The detergent was slowly removed by the addition of SM2 Biobeads (Bio-Rad) while stirring on ice for 6 h to allow for the generation of proteoliposomes (PL); the process was controlled by the regimen of Biobead addition. To purify the PL, 50%:20% sucrose density gradient ultracentrifugation was used. A TAMRA probe (ThermoFisher) was used to determine the orientation of reconstituted PARL, which specifically and covalently labels serine residues of an enzymatically active serine protease. In total, 2 μM of TAMRA probe was added to PL samples and incubated for 1 h, allowing the TAMRA probe to label only the outward-facing accessible active sites. […]

For assay [2], the system named is human PARLΔ77. Kind of assay: IQ-peptide substrate cleavage kinetics, PARLΔ77 in proteoliposomes. It counts as biochemical. The note with it: for fold change Km/kcat, PARLΔ77/PARLΔ55 / fold change kcat, PARLΔ77/PARLΔ55: PARL in PLs; for turnover / proteolysis with PARLΔ77 compared with PARLΔ55: in PL.
Source text: as §1, §2, §3

For orientation: Km means the substrate concentration at which the rate is half of its maximum. For the substance “(DABCYL)-AVFLAFGLGL-Glu(EDANS) [IQ-PINK1^99–108, internally quenched DABCYL/EDANS peptide substrate based on PINK1 PARL cleavage site]”, in assay [1], the Km is 13 ± 2 µM, the “kcat (turnover rate)” value turned out to be 0.0025 ± 0.00017 s⁻¹ and the “kcat/KM (catalytic efficiency)” value was 190 ± 28 M⁻¹ s⁻¹. For the same substance, in assay [2], the “fold change Km/kcat, PARLΔ77/PARLΔ55” value is 5 fold and the “fold change kcat, PARLΔ77/PARLΔ55” value worked out at 3 fold.

Consider “(DABCYL)-AVFLSAVAVG-Glu(EDANS) [IQ-PGAM5^20–29, internally quenched DABCYL/EDANS peptide substrate based on PGAM5 PARL cleavage site]”, for which, in assay [1], the Km came out at 1.3 ± 0.2 µM, the “kcat (turnover rate)” value is 0.00133 ± 0.000333 s⁻¹ and the “kcat/KM (catalytic efficiency)” value came to 1000 ± 170 M⁻¹ s⁻¹. In assay [2], the “fold change Km/kcat, PARLΔ77/PARLΔ55” value was 7 fold and the “fold change kcat, PARLΔ77/PARLΔ55” value came to 4 fold.

With “(DABCYL)-GVT LCAVPIA-Glu(EDANS) [IQ-Smac/Diablo^51–60, internally quenched DABCYL/EDANS peptide substrate based on Smac/Diablo PARL cleavage site]”, in assay [1], the Km turned out to be 3.9 ± 0.7 µM, the “kcat (turnover rate)” value is 0.00153 ± 8.3e-05 s⁻¹ and the “kcat/KM (catalytic efficiency)” value is 389 ± 83 M⁻¹ s⁻¹. In assay [2], the “fold change Km/kcat, PARLΔ77/PARLΔ55” value was found to be 2 fold and the “fold change kcat, PARLΔ77/PARLΔ55” value amounted to 10 fold. Moreover, the “turnover / proteolysis with PARLΔ77 compared with PARLΔ55” value in assay [2] (listed as IQ-Smac/Diablo) was “increase in proteolysis”. In addition, the “turnover / proteolysis with PARLΔ77 compared with PARLΔ55” value in assay [2] (listed as Smac/Diablo) is given as “significantly enhanced”.
